We go through 24 compounds from ChEMBL document CHEMBL1128053, “Inhibition of matrix metalloproteinases by N-carboxyalkyl dipeptides: Enhanced potency and selectivity with substituted P1 homophenylalanines” (Bioorg Med Chem Lett, 1995).

In general, Ki refers to the equilibrium dissociation constant of an inhibitor or competing ligand from its target.

Test [1] deals with T1, Interstitial collagenase (Homo sapiens, UniProt P03956).
T1 sequence (P03956 whole entry): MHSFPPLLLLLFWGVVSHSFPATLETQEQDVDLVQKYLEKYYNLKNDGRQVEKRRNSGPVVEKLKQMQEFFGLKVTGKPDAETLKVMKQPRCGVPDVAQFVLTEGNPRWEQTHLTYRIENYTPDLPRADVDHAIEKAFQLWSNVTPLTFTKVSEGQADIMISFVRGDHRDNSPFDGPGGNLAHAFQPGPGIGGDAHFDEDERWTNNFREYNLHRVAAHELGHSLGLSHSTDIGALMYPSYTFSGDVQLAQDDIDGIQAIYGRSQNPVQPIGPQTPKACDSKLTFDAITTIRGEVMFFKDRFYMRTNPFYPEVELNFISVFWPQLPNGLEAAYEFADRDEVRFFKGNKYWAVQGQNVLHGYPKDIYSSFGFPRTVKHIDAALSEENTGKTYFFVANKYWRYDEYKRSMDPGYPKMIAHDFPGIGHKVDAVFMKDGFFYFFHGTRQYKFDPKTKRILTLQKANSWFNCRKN

The target of test [2] is 72 kDa type IV collagenase (Homo sapiens, UniProt P08253).
Sequence of 72 kDa type IV collagenase (P08253 whole entry): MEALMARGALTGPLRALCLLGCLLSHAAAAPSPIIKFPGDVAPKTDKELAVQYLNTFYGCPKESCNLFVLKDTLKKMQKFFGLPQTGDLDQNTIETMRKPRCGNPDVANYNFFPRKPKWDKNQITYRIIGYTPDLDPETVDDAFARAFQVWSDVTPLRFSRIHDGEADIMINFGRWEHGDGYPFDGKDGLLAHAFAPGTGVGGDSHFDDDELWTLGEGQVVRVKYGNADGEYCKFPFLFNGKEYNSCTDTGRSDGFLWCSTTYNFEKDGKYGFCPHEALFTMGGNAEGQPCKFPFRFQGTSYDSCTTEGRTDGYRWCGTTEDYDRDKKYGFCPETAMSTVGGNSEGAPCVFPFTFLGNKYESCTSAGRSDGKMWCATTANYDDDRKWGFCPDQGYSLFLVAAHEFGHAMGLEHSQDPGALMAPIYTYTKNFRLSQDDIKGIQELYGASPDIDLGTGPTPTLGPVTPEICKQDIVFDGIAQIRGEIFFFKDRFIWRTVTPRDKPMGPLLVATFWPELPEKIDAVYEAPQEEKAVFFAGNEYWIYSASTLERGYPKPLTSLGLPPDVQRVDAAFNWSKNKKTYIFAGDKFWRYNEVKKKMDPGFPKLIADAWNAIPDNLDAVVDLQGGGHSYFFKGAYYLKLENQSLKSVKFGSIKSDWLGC

Each structure is given as a SMILES string.

For the compound `Cc1ccc(CC[C@H](N[C@H](C)C(=O)O)C(=O)N[C@@H](CC(C)C)C(=O)Nc2ccccc2)cc1`, in test [1], the inhibitory constant (Ki) was determined as 1900 nM.

The compound `CC(C)C[C@H](NC(=O)[C@H](CCc1cccc(O)c1)N[C@H](C)C(=O)O)C(=O)Nc1ccccc1` displayed a Ki in test [1] of 510 nM. Compared with the last compound, the Ki is about 3.7-fold lower. In the case of `C[C@@H](N[C@@H](CCc1ccccc1)C(=O)N[C@@H](CCCNC(=N)N)C(=O)Nc1ccccc1)C(=O)O`, the Ki in test [1] was 470 nM; in test [2], 210 nM. `Cc1cccc(CC[C@H](N[C@H](C)C(=O)O)C(=O)N[C@@H](CC(C)C)C(=O)Nc2ccccc2)c1` showed a Ki in test [1] of 1500 nM. This lies in the single-digit micromolar range. As for `CC(C)C[C@H](NC(=O)[C@H](CCc1ccc(F)cc1)N[C@H](C)C(=O)O)C(=O)Nc1ccccc1`, the Ki in test [1] is 870 nM; in test [2], 220 nM.

As for `CCc1ccc(CC[C@H](N[C@H](C)C(=O)O)C(=O)N[C@@H](CC(C)C)C(=O)Nc2ccccc2)cc1`, the figures for the Ki in test [1] and in test [2] were 2300 nM and 12 nM, respectively.

As to `Cc1ccc(CC[C@H](N[C@H](C)C(=O)O)C(=O)N[C@@H](CC(C)C)C(=O)Nc2ccccc2)cc1C`, the Ki in test [1] was found to be 7700 nM; in test [2] it was 25 nM. In test [1], `CC(C)C[C@H](NC(=O)[C@H](CCc1ccc(O)cc1)N[C@H](C)C(=O)O)C(=O)Nc1ccccc1` yielded a Ki of 1000 nM. This counts as single-digit micromolar. `Cc1ccccc1CC[C@H](N[C@H](C)C(=O)O)C(=O)N[C@@H](CC(C)C)C(=O)Nc1ccccc1`: the Ki in test [1] is greater than 10000 nM. Consider `CC(C)C[C@H](NC(=O)[C@H](CCc1ccc(C(C)C)cc1)N[C@H](C)C(=O)O)C(=O)Nc1ccccc1`, for which the Ki in test [1] is greater than 10000 nM; in test [2], 130 nM. `CCCCc1ccc(CC[C@H](N[C@H](C)C(=O)O)C(=O)N[C@@H](CCCNC(=N)N)C(=O)Nc2ccccc2)cc1`: the Ki is greater than 10000 nM in test [1] and 2.1 nM in test [2]. For the compound `CC(C)C[C@H](NC(=O)[C@H](CCc1ccc(Cl)cc1)N[C@H](C)C(=O)O)C(=O)Nc1ccccc1`, the Ki came out at 2100 nM in test [1] and 77 nM in test [2].

Regarding `CCCc1ccc(CC[C@H](N[C@H](C)C(=O)O)C(=O)N[C@@H](CC(C)C)C(=O)Nc2ccccc2)cc1`, the Ki in test [1] stood at 5900 nM; in test [2], 3.5 nM. For `Cc1cc(C)cc(CC[C@H](N[C@H](C)C(=O)O)C(=O)N[C@@H](CC(C)C)C(=O)Nc2ccccc2)c1`, the figures for the Ki in test [1] and in test [2] were greater than 10000 nM and 4840 nM, respectively.

In test [1], `COc1cccc(CC[C@H](N[C@H](C)C(=O)O)C(=O)N[C@@H](CC(C)C)C(=O)Nc2ccccc2)c1` gave a Ki greater than 10000 nM.

In the case of `CC(C)C[C@H](NC(=O)[C@H](CCc1ccccc1O)N[C@H](C)C(=O)O)C(=O)Nc1ccccc1`, in test [1], the Ki amounted to 2700 nM. This lies in the single-digit micromolar range. With `CC(C)Cc1cccc(CC[C@H](N[C@H](C)C(=O)O)C(=O)N[C@@H](CC(C)C)C(=O)Nc2ccccc2)c1`, the Ki was greater than 10000 nM in test [1] and 6100 nM in test [2].

In the case of `CCCc1ccc(CC[C@H](N[C@H](C)C(=O)O)C(=O)N[C@@H](CCCN=C(N)N)C(=O)Nc2ccccc2)cc1`, the Ki in test [1] was 2900 nM; in test [2] it was 3 nM. For `CC(C)C[C@H](NC(=O)[C@H](CCc1cccc(Cl)c1)N[C@H](C)C(=O)O)C(=O)Nc1ccccc1`, the Ki in test [1] amounted to 3300 nM. In other words, the single-digit micromolar range. Compound `COc1ccccc1CC[C@H](N[C@H](C)C(=O)O)C(=O)N[C@@H](CC(C)C)C(=O)Nc1ccccc1` yielded a Ki in test [1] greater than 10000 nM. For `CC(C)Cc1ccc(CC[C@H](N[C@H](C)C(=O)O)C(=O)N[C@@H](CC(C)C)C(=O)Nc2ccccc2)cc1`, the figures for the Ki in test [1] and in test [2] were greater than 10000 nM and 11 nM, respectively. As to `COc1ccc(CC[C@H](N[C@H](C)C(=O)O)C(=O)N[C@@H](CC(C)C)C(=O)Nc2ccccc2)cc1OC`, the Ki in test [1] and in test [2] was greater than 10000 nM in each case. As for `CC(C)C[C@H](NC(=O)[C@H](CCc1ccc(C(F)(F)F)cc1)N[C@H](C)C(=O)O)C(=O)Nc1ccccc1`, the Ki in test [1] worked out at 5100 nM; in test [2], 110 nM. For the compound `CCOc1ccc(CC[C@H](N[C@H](C)C(=O)O)C(=O)N[C@@H](CCCNC(=N)N)C(=O)Nc2ccccc2)cc1`, the Ki in test [1] was 2300 nM; in test [2], 6.1 nM.
